The record followed here is patent publication EP4516281A1, “COSMETIC COMPOSITIONS” (The Boots Company plc, priority 2023, dated 2025).

The assay deals with mushroom tyrosinase. Put plainly: Tyrosinase inhibition screening (L-DOPA oxidation, absorbance at 470 nm). Type of assay: biochemical. As to conditions: Concentration 0.1%; single compounds. An excerpt:
The tyrosinase inhibition may be used to determine the tyrosinase inhibition ability of the compounds. The test comprises adding the test compound to a solution of L-dihydroxyphenylalanine (L-(DOPA)) and mushroom tyrosinase. L-(DOPA) is converted to […] by the mushroom tyrosinase, causing a brown colour to form. Inhibition of this reaction prevents the brown colour formation. The lighter the colour at the end of the reaction, the stronger is the inhibitory effect of the active. Absorbance data may be collected using a plate reacted set up to have a kinetic read every 1 minute for 30 minutes, where absorbance is read at 470 nm.

Regarding `C=C(C)[C@@H]1CCC(C)=C[C@H]1c1c(O)cc(CCCCC)cc1O` [F, Cannabidiol isolate (CBD)], the “Tyrosinase Inhibition (%)” value was 9.134%. In the case of Feruloyl oligopeptide-33, the “Tyrosinase Inhibition (%)” value was found to be 41.765%. Under `O=C(O)C(O)c1ccccc1` (stereo not shown) [C, Mandelic acid] stands 80.279%. For `CCCCCCCCCCCCCCC[C@@H](O)[C@@H](N)CO` [G, Sphinganine], the “Tyrosinase Inhibition (%)” value is recorded as -5.78%.
